Measured values published in patent US5849721A, “Sulfated polysaccharides obtained from heparin, preparation process, pharmaceutical composition and use thereof” (Rhone-Poulenc Rorer S.A., priority 1992, dated 1998).

System: bleeding time
Conditions: rat, in vivo, 2 mg/kg

heparin
increase in the bleeding time: 13
